Measured values: patent publication US12138252B2, “Multikinase inhibitors of VEGF and TGF beta and uses thereof” (AIVIVA BIOPHARMA, INC., priority 2017, dated 2024)

Columns and labels:
TGFb1 mRNA = TGFb1 mRNA expression (qPCR) in skin of mice after LL-37 challenge; format: in vivo; conditions: LL37 induced, single intradermal injection 1.6 mg, FIG. 1
Procedure: (§1) In our study, mice were injected subcutaneously with 40 μL of LL-37 (3.3 mg/mL) to induce inflammatory reactions. Immediately following the LL-37 injection, axitinib, nintedanib, and lenvatinib were individually administered as a single intradermal injection (1.6 mg). LL-37 injection was repeated every 12 hours for a total of 4 injections. Endotoxin-free water and dexamethasone (3 mg/kg by intraperitoneal injection, twice), respectively, were used as negative and positive control groups.
(§2) Mice were then anaesthetized, and tissue samples of lesion sites were excised and fixed for H&E stainings and immunohistochemical analysis. Markers for inflammation (CD4 and CD8) were determined using specific antibodies. TGF beta levels are measured by mRNA expression using qPCR.

[1] = tested on: LL37-induced inflammation; assay: LL37-induced dermal inflammation model in mice, histopathology and CD4/CD8 immunostaining; format: in vivo; conditions: intradermal LL37 induction, single intradermal injection 1.6 mg, FIG. 2
Procedure: as §1
At 48 hours after the initial LL-37 injection, the dorsal skin was photographed, and the severity of skin lesions were scored for redness and measured for areas of involvement.
as §2
The tissue samples were analyzed for inflammation characteristics. Histopathology endpoints included inflammation, and CD4+ and CD8+ T-lymphocyte immunostaining. For inflammation scores, tissues were examined histologically and scored for inflammatory cell infiltrate.

TGF-beta 1 = assay: Dermal TGFb1 levels (ELISA) after linear incisional wound in minipigs; format: in vivo, Gottingen Minipigs; conditions: minipig incisional wound, approximately 16 mg intradermal once, biopsies days 4, 7, 9, ELISA, FIG. 5
From the text: The purpose of this study was to evaluate the topical effects of axitinib, nintedanib, sorafenib and lenvatinib when administered via intradermal injection to the dorsal skin along linear incisions of minipigs. Linear incisional wound was made to elicit inflammatory and wound healing process in the skin. After dosing, animals were observed postdose for 9 days to assess the levels of TGFb1 expressions in the skin.
Three male Gottingen Minipigs® dosed once via intradermal injection along the edges of each of the linear incision wound sites for each animal (wounds on the dorsum, perpendicular to the spine, approximately 3 cm in length and 3 cm distance from the spine). Each incisional wound received approximately 16 mg of the test compound intradermally once along both sides of the linear wound.
On days of 4, 7, and 9 post-dosing, one 4 mm dermal punch biopsy was collected for each incisional wound and processed for TGF-beta 1 analysis with ELISA, using a commercial kit (e.g., the kit from Thermo Fisher or other vendors).

TGF beta1 mRNA = TGF beta1 mRNA expression (qRT-PCR) in rabbit ear hypertrophic scar model; format: in vivo, New Zealand white rabbits; conditions: 1% w/w 100 μl intradermal on days 15 and 29, Day 43, FIG. 6
Procedure: (§3) The objective of this study was to examine the effect of test compounds on wound healing and TGF beta expression after dermal injury in a rabbit ear hypertrophic scar model.
(§4) In New Zealand white rabbits, maintained under a surgical plane of anesthesia, trauma stimulation of the skin on the ventral surface of both ears is initiated on Day 1. Trauma sites are evaluated on Days 8, 15, 22, 29, 36, and 43. On days 15 and 29, each site is dosed with test compounds (e.g., 1% w/w, 100 μl) by intradermal or intralesional injections.
Animals are euthanized on Day 43, and the trauma sites are harvested and frozen for TGF beta analysis using quantitative RT-PCR (qRT-PCR) (e.g., A. K. Johnson et al., Dev. Comp. Immunol., 2006; 30(5): 473-84). TGF beta1 mRNA expression levels in treated trauma samples are compared to the expression level in the untreated trauma sample.

rabbit ear wound = assay: Histopathology of rabbit ear wound (neovascularization, fibrosis, re-epithelialization); format: in vivo, New Zealand white rabbits; design: key to Total Score: aggregated total of severity grades for microscopic findings; key to Neovascularization / Re-epithelialization: five-step severity grade (minimal, mild, moderate, marked, severe); conditions: intradermal 1%; for average total score of test wounds lower than untreated wounds by: difference to untreated control; for Total Score / Fibrosis/Collagen / Neovascularization / Re-epithelialization: treated mean, Day 43; for Total Score: aggregation of microscopic findings; for Fibrosis/Collagen / Neovascularization / Re-epithelialization: histology severity grade; for angiogenesis / neovascularization compared with untreated wounds (words) / fibrosis compared with untreated wounds (words): histopathology; for scar formation compared with control sites: overall
Procedure: as §3, §4
At necropsy, each treatment site was harvested and preserved for hematoxylin and […] and Mason's trichrome stainings. Each lesion was examined histologically and graded for neovascularization, fibrosis and re-epithelialization using a five-step/severity grading system (minimal, mild, moderate, marked, and severe). The average total score is an aggregation of these microscopic findings relating to an inflammatory response.

SMILES	TGFb1 mRNA expression relative to LL37 alone (without treatment) (TGFb1 mRNA; 48 hours)	TGFb-1 mRNA expression among all treatment groups (TGFb1 mRNA)	inflammation score (inflammatory cell infiltrate) [1]	suppression of TGF beta 1 expression in skin (TGF-beta 1)	mean folds of TGF beta mRNA expression vs untreated wound sample (TGF beta1 mRNA)	average total score of test wounds lower than untreated wounds by (rabbit ear wound)	Total Score (rabbit ear wound)	Fibrosis/Collagen (rabbit ear wound)	Neovascularization (rabbit ear wound)	Re-epithelialization (rabbit ear wound)	angiogenesis / neovascularization compared with untreated wounds (words) (rabbit ear wound)	fibrosis compared with untreated wounds (words) (rabbit ear wound)	angiogenesis / neovascularization compared with untreated wounds (words) (rabbit ear wound; listed as Sorafenib)	scar formation compared with control sites (rabbit ear wound)	angiogenesis / neovascularization compared with untreated wounds (words) (rabbit ear wound; listed as Nintedanib)	fibrosis compared with untreated wounds (words) (rabbit ear wound; listed as Nintedanib)
COc1cc2nccc(Oc3ccc(NC(=O)NC4CC4)c(Cl)c3)c2cc1C(N)=O [lenvatinib]	79%	lowest TGFb-1 mRNA expression	prominent reductions	very effective	lower than the expression level in the untreated wound sample	–	–	–	–	–	–	–	–	–	–	–
CNC(=O)c1ccccc1Sc1ccc2c(/C=C/c3ccccn3)n[nH]c2c1 [axitinib]	–	–	–	–	–	1.4	4.6	3.3	1	0.3	–	–	–	–	–	–
CNC(=O)c1cc(Oc2ccc(NC(=O)Nc3ccc(Cl)c(C(F)(F)F)c3)cc2)ccn1 [sorafenib]	–	–	–	not as effective	lower than the expression level in the untreated wound sample	–	5.8	2.5	3	0.3	do not show any reduction in angiogenesis	similar, or increased fibrosis	slightly increased neovascularization	does not appear to have reduced scar formation	–	–
COC(=O)c1ccc2c(c1)NC(=O)/C2=C(\Nc1ccc(N(C)C(=O)CN2CCN(C)CC2)cc1)c1ccccc1 [nintedanib]	–	–	prominent reductions	very effective	lower than the expression level in the untreated wound sample	1.5	4.5	3	1	0.5	decreased angiogenesis	decreased angiogenesis and fibrosis	–	less scar formation	much less neovascularization	about the same fibrosis
